From patent US20250215030A1, “STAT MODULATORS AND USES THEREOF” (Recludix Pharma, Inc., priority 2022, published 2025)

Experiments:
[1] = target: T1, Recombinant STAT3 protein (STAT3(G127-I722)) (Homo sapiens, UniProt P40763); experiment: STAT3 Fluorescence Polarization (FP) Assay; assay type: binding; details: STAT3(G127-I722) 25 nM, probe 5-FAM-GpYLPQTV-NH2 2 nM, 45-minute incubation
T1 construct: STAT3(G127-I722)
In short: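 STAT3(G127-I722) at 25 nM and 5-FAM-GpYLPQTV-NH2 probe at 2 nM in HEPES pH 7.4 buffer with NaCl, EDTA, Tween 20, DTT; 1% DMSO. FP read after 45 min at room temperature; IC50 by nonlinear regression of mP vs log concentration, binned A ≤100 nM to D >10 μM.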

[2] = target: T2, Recombinant STAT6 protein (STAT6(W123-T658)) (Homo sapiens, UniProt P42226); experiment: STAT6 Fluorescence Polarization (FP) Assay; assay type: binding; details: STAT6(W123-T658) 250 nM, probe 5-FAM-ApYKPFQDLI-NH2 2 nM, 45-minute incubation
T2 construct: STAT6(W123-T658)
T2 sequence (P42226 123-658): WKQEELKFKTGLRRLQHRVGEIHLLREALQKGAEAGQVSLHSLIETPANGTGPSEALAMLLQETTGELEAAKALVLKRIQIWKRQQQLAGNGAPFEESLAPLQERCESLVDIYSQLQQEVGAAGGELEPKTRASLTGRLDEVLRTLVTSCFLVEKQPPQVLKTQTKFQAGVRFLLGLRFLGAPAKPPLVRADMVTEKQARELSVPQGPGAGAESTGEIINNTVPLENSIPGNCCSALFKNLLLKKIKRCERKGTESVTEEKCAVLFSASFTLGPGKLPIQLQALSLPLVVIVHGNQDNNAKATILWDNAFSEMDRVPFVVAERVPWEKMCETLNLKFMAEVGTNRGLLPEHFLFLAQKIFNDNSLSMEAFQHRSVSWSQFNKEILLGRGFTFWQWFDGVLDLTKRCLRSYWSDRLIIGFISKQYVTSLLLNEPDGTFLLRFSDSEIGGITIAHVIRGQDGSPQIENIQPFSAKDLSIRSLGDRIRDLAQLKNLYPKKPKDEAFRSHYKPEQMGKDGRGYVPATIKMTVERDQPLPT
In short: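 STAT6 (W123-T658) at 250 nM mixed with 2 nM 5-FAM-ApYKPFQDLI-NH2 probe in HEPES pH 7.4 buffer with DTT and Tween 20, 1% DMSO final. Polarization read after 45 min at room temperature; IC50 by nonlinear regression of mP versus log concentration, reported in bins A–D.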

T1 sequence (P40763 127-722, species assumed): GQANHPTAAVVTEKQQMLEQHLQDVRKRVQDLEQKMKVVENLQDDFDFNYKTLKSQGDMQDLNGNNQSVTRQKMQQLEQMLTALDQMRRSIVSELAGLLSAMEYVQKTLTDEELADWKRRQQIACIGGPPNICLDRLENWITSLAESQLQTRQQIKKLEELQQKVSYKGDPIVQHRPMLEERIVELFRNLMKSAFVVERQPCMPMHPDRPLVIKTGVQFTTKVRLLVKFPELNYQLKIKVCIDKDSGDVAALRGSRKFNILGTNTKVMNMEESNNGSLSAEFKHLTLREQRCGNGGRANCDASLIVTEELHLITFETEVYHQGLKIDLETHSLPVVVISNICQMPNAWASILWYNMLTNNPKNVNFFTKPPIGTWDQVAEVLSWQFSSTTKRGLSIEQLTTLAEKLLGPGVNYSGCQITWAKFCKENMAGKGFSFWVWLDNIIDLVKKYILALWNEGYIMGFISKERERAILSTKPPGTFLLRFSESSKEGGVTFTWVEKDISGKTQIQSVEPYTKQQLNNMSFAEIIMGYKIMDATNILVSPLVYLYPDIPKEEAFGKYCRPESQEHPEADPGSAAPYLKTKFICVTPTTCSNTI

Question: O=C(N[C@H]1C[C@@H]2C[C@@H]2C[C@H]2CC[C@@H](C(=O)N3CC(c4cccnc4)C3)N2C1=O)c1cc2cc(C(F)(F)P(=O)(O)O)ccc2s1 [Compound 36, (difluoro(2-(((3S,6S,7aS,8aR,9aR)-5-oxo-3-(3-(pyridin-3-yl)azetidine-1-carbonyl)decahydro-1H-cyclopropa[d]pyrrolo[1,2-a]azocin-6-yl)carbamoyl)benzo[b]thiophen-5-yl)methyl)phosphonic acid] was tested. Which IC50 [1] did it give?
Answer: Its IC50 is under 100 nM.

Question: What about the IC50 [2] of the same compound?
Answer: The IC50 was 300 to 3000 nM.

Question: How did the IC50 [1] turn out when C[C@]12CC(NC(=O)c3cc4cc(C(F)(F)P(=O)(O)O)ccc4s3)C(=O)N3[C@H](CC[C@H]3C(=O)N3CC(c4cccnc4)C3)[C@H]1C2 (stereo partly drawn) [Compound 37, (difluoro(2-(((3S,6S,7aS,8aR,9aR)-7a-methyl-5-oxo-3-(3-(pyridin-3-yl)azetidine-1-carbonyl)decahydro-1H-cyclopropa[d]pyrrolo[1,2-a]azocin-6-yl)carbamoyl)benzo[b]thiophen-5-yl)methyl)phosphonic acid] was run?
Answer: Its IC50 is under 100 nM.

Question: What about the IC50 [2] of the same compound?
Answer: The IC50 was 3000 to 30000 nM.

Question: With C[C@@]12C[C@H](NC(=O)c3cc4cc(C(F)(F)P(=O)(O)O)ccc4s3)C(=O)N3[C@H](CC[C@H]3C(=O)N3CC(c4cccnc4)C3)[C@@H]1C2 [Compound 38, (difluoro(2-(((3S,6S,7aR,8aS,9aR)-7a-methyl-5-oxo-3-(3-(pyridin-3-yl)azetidine-1-carbonyl)decahydro-1H-cyclopropa[d]pyrrolo[1,2-a]azocin-6-yl)carbamoyl)benzo[b]thiophen-5-yl)methyl)phosphonic acid] as the compound, how does the IC50 [1] read?
Answer: The IC50 was 100 to 1000 nM.

Question: What about the IC50 [2] of the same compound?
Answer: Its IC50 is 3000 to 30000 nM.

Question: O=C(N[C@H]1C[C@@H]2C[C@@H]2C[C@H]2CC[C@@H](C(=O)N[C@@H]3CCN(c4ccccn4)C3)N2C1=O)c1cc2cc(C(F)(F)P(=O)(O)O)ccc2s1 [Compound 39, (difluoro(2-(((3S,6S,7aS,8aR,9aR)-5-oxo-3-(((R)-1-(pyridin-2-yl)pyrrolidin-3-yl)carbamoyl)decahydro-1H-cyclopropa[d]pyrrolo[1,2-a]azocin-6-yl)carbamoyl)benzo[b]thiophen-5-yl)methyl)phosphonic acid] was tested. Which IC50 [1] did it give?
Answer: Its IC50 is under 100 nM.

Question: What about the IC50 [2] of the same compound?
Answer: Its IC50 is 3000 to 30000 nM.

Question: Which IC50 [1] does the source give for CC(=O)N1CC2(C1)CN(C(=O)[C@@H]1CC[C@@H]3C[C@H]4C[C@H]4C[C@H](NC(=O)c4cc5cc(C(F)(F)P(=O)(O)O)ccc5s4)C(=O)N31)C2 [Compound 40, ((2-(((3S,6S,7aS,8aR,9aR)-3-(6-acetyl-2,6-diazaspiro[3.3]heptane-2-carbonyl)-5-oxodecahydro-1H-cyclopropa[d]pyrrolo[1,2-a]azocin-6-yl)carbamoyl)benzo[b]thiophen-5-yl)difluoromethyl)phosphonic acid] here?
Answer: The IC50 was under 100 nM.

Question: And the IC50 [2]?
Answer: The IC50 was 300 to 3000 nM.

Question: What does the source list for O=C(N[C@H]1C[C@@H]2C[C@@H]2C[C@H]2CC[C@@H](C(=O)N3CC4(CN(C(=O)Cc5ccccc5)C4)C3)N2C1=O)c1cc2cc(C(F)(F)P(=O)(O)O)ccc2s1 [Compound 41, (difluoro(2-(((3S,6S,7aS,8aR,9aR)-5-oxo-3-(6-(2-phenylacetyl)-2,6-diazaspiro[3.3]heptane-2-carbonyl)decahydro-1H-cyclopropa[d]pyrrolo[1,2-a]azocin-6-yl)carbamoyl)benzo[b]thiophen-5-yl)methyl)phosphonic acid]?
Answer: IC50 [1]: < 100 nM; IC50 [2]: 300 to 3000 nM

Question: Which results are given for O=C(N[C@H]1C[C@@H]2C[C@@H]2C[C@H]2CC[C@@H](C(=O)N3CCN(C(=O)C4COC4)CC3)N2C1=O)c1cc2cc(C(F)(F)P(=O)(O)O)ccc2s1 [Compound 42, (difluoro(2-(((3S,6S,7aS,8aR,9aR)-3-(4-(oxetane-3-carbonyl)piperazine-1-carbonyl)-5-oxodecahydro-1H-cyclopropa[d]pyrrolo[12-a]azocin-6-yl)carbamoyl)benzo[b]thiophen-5-yl)methyl)phosphonic acid]?
Answer: IC50 [1]: 100 to 1000 nM; IC50 [2]: 300 to 3000 nM

Question: What does the source list for O=C(N[C@H]1C[C@@H]2C[C@@H]2C[C@H]2CC[C@@H](C(=O)N3CCN(C4COC4)CC3)N2C1=O)c1cc2cc(C(F)(F)P(=O)(O)O)ccc2s1 [Compound 43, (difluoro(2-(((3S,6S,7aS,8aR,9aR)-3-(4-(oxetan-3-yl)piperazine-1-carbonyl)-5-oxodecahydro-1H-cyclopropa[d]pyrrolo[1,2-a]azocin-6-yl)carbamoyl)benzo[b]thiophen-5-yl)methyl)phosphonic acid]?
Answer: IC50 [1]: 100 to 1000 nM; IC50 [2]: 3000 to 30000 nM

Question: How did the IC50 [1] turn out when O=C(N[C@H]1C[C@@H]2C[C@@H]2C[C@H]2CC[C@@H](C(=O)NC3CN(c4ccccn4)C3)N2C1=O)c1cc2cc(C(F)(F)P(=O)(O)O)ccc2s1 [Compound 44, (difluoro(2-(((3S,6S,7aS,8aR,9aR)-5-oxo-3-((1-(pyridin-2-yl)azetidin-3-yl)carbamoyl)decahydro-1H-cyclopropa[d]pyrrolo[1,2-a]azocin-6-yl)carbamoyl)benzo[b]thiophen-5-yl)methyl)phosphonic acid] was run?
Answer: The IC50 was under 100 nM.

Question: And the IC50 [2]?
Answer: Its IC50 is 300 to 3000 nM.

Question: For O=C(N[C@H]1C[C@@H]2C[C@@H]2C[C@H]2CC[C@@H](C(=O)N3CC(n4ccnc4)C3)N2C1=O)c1ccc2ccc(C(F)(F)P(=O)(O)O)cc2c1 [Compound 46, ((7-(((3S,6S,7aS,8aR,9aR)-3-(3-(1H-imidazol-1-yl)azetidine-1-carbonyl)-5-oxodecahydro-1H-cyclopropa[d]pyrrolo[1,2-a]azocin-6-yl)carbamoyl)naphthalen-2-yl)difluoromethyl)phosphonic acid], which IC50 [1] is on record?
Answer: Its IC50 is under 100 nM.

Question: What about the IC50 [2] of the same compound?
Answer: Its IC50 is 300 to 3000 nM.

Question: For O=C(N[C@H]1C[C@H]2C[C@H]2C[C@H]2CC[C@@H](C(=O)N[C@@H]3CCN(c4cccnc4)C3)N2C1=O)c1cc2cc(C(F)(F)P(=O)(O)O)ccc2s1 [Compound 47, (difluoro(2-(((3S,6S,7aR,8aS,9aR)-5-oxo-3-(((R)-1-(pyridin-3-yl)pyrrolidin-3-yl)carbamoyl)decahydro-1H-cyclopropa[d]pyrrolo[1,2-a]azocin-6-yl)carbamoyl)benzo[b]thiophen-5-yl)methyl)phosphonic acid], which IC50 [1] is on record?
Answer: Its IC50 is under 100 nM.

Question: What about the IC50 [2] of the same compound?
Answer: The IC50 was 300 to 3000 nM.

Question: O=C(N[C@H]1C[C@@H]2C[C@@H]2C[C@H]2CC[C@@H](C(=O)N[C@@H]3CCN(C4COC4)C3)N2C1=O)c1cc2cc(C(F)(F)P(=O)(O)O)ccc2s1 [Compound 48, (difluoro(2-(((3S,6S,7aS,8aR,9aR)-3-(((R)-1-(oxetan-3-yl)pyrrolidin-3-yl)carbamoyl)-5-oxodecahydro-1H-cyclopropa[d]pyrrolo[1,2-a]azocin-6-yl)carbamoyl)benzo[b]thiophen-5-yl)methyl)phosphonic acid] was tested. Which IC50 [1] did it give?
Answer: Its IC50 is 100 to 1000 nM.

Question: What about the IC50 [2] of the same compound?
Answer: Its IC50 is 3000 to 30000 nM.

Question: Which IC50 [1] does the source give for N#Cc1cccc(C2CN(C(=O)[C@@H]3CC[C@@H]4C[C@H]5C[C@H]5C[C@H](NC(=O)c5cc6cc(C(F)(F)P(=O)(O)O)ccc6s5)C(=O)N43)C2)c1 [Compound 49, ((2-(((3S,6S,7aS,8aR,9aR)-3-(3-(3-cyanophenyl)azetidine-1-carbonyl)-5-oxodecahydro-1H-cyclopropa[d]pyrrolo[1,2-a]azocin-6-yl)carbamoyl)benzo[b]thiophen-5-yl)difluoromethyl)phosphonic acid] here?
Answer: The IC50 was under 100 nM.

Question: What about the IC50 [2] of the same compound?
Answer: Its IC50 is 3000 to 30000 nM.

Question: For O=C(N[C@H]1C[C@@H]2C[C@@H]2C[C@H]2CC[C@@H](C(=O)N3CC(c4cnccn4)C3)N2C1=O)c1cc2cc(C(F)(F)P(=O)(O)O)ccc2s1 [Compound 50, (difluoro(2-(((3S,6S,7aS,8aR,9aR)-5-oxo-3-(3-(pyrazin-2-yl)azetidine-1-carbonyl)decahydro-1H-cyclopropa[d]pyrrolo[1,2-a]azocin-6-yl)carbamoyl)benzo[b]thiophen-5-yl)methyl)phosphonic acid], which IC50 [1] is on record?
Answer: Its IC50 is under 100 nM.

Question: What about the IC50 [2] of the same compound?
Answer: Its IC50 is 3000 to 30000 nM.

Question: What does the source list for O=C(N[C@H]1C[C@@H]2C[C@@H]2C[C@H]2CC[C@@H](C(=O)N[C@@H]3CCN(c4cccnn4)C3)N2C1=O)c1cc2cc(C(F)(F)P(=O)(O)O)ccc2s1 [Compound 51, (difluoro(2-(((3S,6S,7aS,8aR,9aR)-5-oxo-3-(((R)-1-(pyridazin-3-yl)pyrrolidin-3-yl)carbamoyl)decahydro-1H-cyclopropa[d]pyrrolo[1,2-a]azocin-6-yl)carbamoyl)benzo[b]thiophen-5-yl)methyl)phosphonic acid]?
Answer: IC50 [1]: < 100 nM; IC50 [2]: 300 to 3000 nM

Question: Which IC50 [1] does the source give for O=C(N[C@H]1C[C@@H]2C[C@@H]2C[C@H]2CC[C@@H](C(=O)N[C@@H]3CCN(c4ccccc4)C3)N2C1=O)c1cc2cc(C(F)(F)P(=O)(O)O)ccc2s1 [Compound 52, (difluoro(2-(((3S,6S,7aS,8aR,9aR)-5-oxo-3-(((R)-1-phenylpyrrolidin-3-yl)carbamoyl)decahydro-1H-cyclopropa[d]pyrrolo[1,2-a]azocin-6-yl)carbamoyl)benzo[b]thiophen-5-yl)methyl)phosphonic acid] here?
Answer: Its IC50 is 100 to 1000 nM.

Question: What about the IC50 [2] of the same compound?
Answer: Its IC50 is 300 to 3000 nM.
